Among the test systems are A498 renal; LOX IMVI melanoma; RPMI-8226 leukemia; BT-549 breast; SK-MEL-28 melanoma; OVCAR-4 ovarian; NCI-H23 lung; A549 NSCLC.
Assay in all cases: growth of human tumour cells (NCI), 48 h

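Cells were grown in 96-well plates and exposed to each compound for 48 hours at five concentrations; endpoints were interpolated linearly between bracketing concentrations, or set to the highest concentration if not reached. GI50 marks 50% less growth. The concentration for full growth arrest is given as TGI.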

Consider `Cc1ccc2oc(=O)cc(/C(=C3/C=CC=N3)c3ccc[nH]3)c2c1`, for which the GI50 in the assay with A498 renal was 0.269 µM; in the assay on LOX IMVI melanoma, 0.343 µM; in the assay with RPMI-8226 leukemia, 0.297 µM; in the assay with BT-549 breast, 0.346 µM; with SK-MEL-28 melanoma, 0.611 µM; in the assay with OVCAR-4 ovarian it was 1.58 µM. Also, the GI50 is 0.484 µM in the assay on NCI-H23 lung and 0.59 µM in the assay with A549 NSCLC. For the same molecule, the TGI with A498 renal is 0.92 µM; in the assay on LOX IMVI melanoma, 1.41 µM; in the assay with RPMI-8226 leukemia it was 1.16 µM; with BT-549 breast it was 1.58 µM; with SK-MEL-28 melanoma it was 3.46 µM; in the assay with OVCAR-4 ovarian it was 9.56 µM. The TGI came out at 3.66 µM in the assay with NCI-H23 lung and 10.9 µM in the assay on A549 NSCLC.
Take `O=S(=O)(CCN1CCOCC1)Nc1cc(-c2ccc3ncnc(Nc4ccc(F)c(Cl)c4)c3c2)cnc1Cl`: the GI50 in the assay with LOX IMVI melanoma is 0.414 µM; in the assay on BT-549 breast, 0.254 µM; with SK-MEL-28 melanoma it was 0.297 µM; in the assay with OVCAR-4 ovarian, 1.66 µM; in the assay with NCI-H23 lung it was 1.02 µM; in the assay with A549 NSCLC it was 1.62 µM. Further, the TGI is 3.15 µM in the assay on LOX IMVI melanoma; 2.59 µM in the assay with BT-549 breast; 8.62 µM in the assay with SK-MEL-28 melanoma; 22.5 µM in the assay with OVCAR-4 ovarian; > 100 µM in the assay on NCI-H23 lung; 6.29 µM in the assay with A549 NSCLC.
Take `O=C1C(Cl)=C(Nc2ccc(Nc3ccccc3)c(NC3=C(Cl)C(=O)c4ccccc4C3=O)c2)C(=O)c2ccccc21`: the GI50 with A498 renal is 0.875 µM; with LOX IMVI melanoma, 4.12 µM; with RPMI-8226 leukemia it was 3.33 µM; with SK-MEL-28 melanoma, 32.9 µM; in the assay on NCI-H23 lung it was 19.6 µM; in the assay on A549 NSCLC, 8.25 µM. The TGI in the assay on A498 renal was 14.4 µM; in the assay with LOX IMVI melanoma, > 100 µM; with RPMI-8226 leukemia, > 100 µM; in the assay with SK-MEL-28 melanoma it was 96.5 µM; with NCI-H23 lung it was > 100 µM; in the assay with A549 NSCLC, > 100 µM.
Turning to `CC1(C)S[C@@H]2[C@H](N3C(=O)c4ccccc4C3=O)CN2[C@H]1NC(=O)N[C@@H]1N2C[C@@H](N3C(=O)c4ccccc4C3=O)[C@H]2SC1(C)C`, the TGI in the assay on A498 renal, in the assay on LOX IMVI melanoma, with RPMI-8226 leukemia, in the assay with SK-MEL-28 melanoma, in the assay with OVCAR-4 ovarian and with NCI-H23 lung was > 100 µM in each case. Besides, the TGI in the assay with A549 NSCLC was > 100 µM.
For `CCN1CCC(Nc2ccnc3cc(Cl)ccc23)CC1`, the GI50 with A498 renal was 74.6 µM; in the assay on LOX IMVI melanoma it was 26.1 µM; with RPMI-8226 leukemia, 25.9 µM; in the assay with SK-MEL-28 melanoma it was 18.1 µM; with OVCAR-4 ovarian, 55.7 µM; in the assay on NCI-H23 lung, 74.1 µM. Besides, the GI50 in the assay on A549 NSCLC is 33.9 µM. For the same molecule, the TGI was > 100 µM in the assay with A498 renal; > 100 µM in the assay on LOX IMVI melanoma; 78.3 µM in the assay with RPMI-8226 leukemia; 33.5 µM with SK-MEL-28 melanoma; > 100 µM in the assay with OVCAR-4 ovarian; > 100 µM in the assay with NCI-H23 lung. Besides, the TGI in the assay with A549 NSCLC was > 100 µM.
Take `CC1CCN(Cc2ccc(NC(=O)c3cc4ccc5cccnc5c4[nH]3)cc2)CC1`: the GI50 is 2.42 µM in the assay with A498 renal; 2.58 µM in the assay on RPMI-8226 leukemia; 10.8 µM in the assay on BT-549 breast; 1.79 µM in the assay with SK-MEL-28 melanoma; 16.5 µM in the assay with OVCAR-4 ovarian; 14.4 µM in the assay with NCI-H23 lung. The TGI is 12.9 µM in the assay on A498 renal; 6.99 µM in the assay with RPMI-8226 leukemia; 24.3 µM in the assay on BT-549 breast; 3.49 µM in the assay on SK-MEL-28 melanoma; > 100 µM with OVCAR-4 ovarian; 37.7 µM with NCI-H23 lung.
With `COc1cc(C2CC(c3cccc(Nc4ccnc5cc(Cl)ccc45)c3)=NN2c2ccc(Cl)cc2)cc(OC)c1OC` (centres undefined), the GI50 in the assay on A498 renal is 4.65 µM; with LOX IMVI melanoma, 0.647 µM; with RPMI-8226 leukemia, 3.69 µM; in the assay on BT-549 breast, 4.63 µM; with SK-MEL-28 melanoma, 4.54 µM; in the assay on NCI-H23 lung it was 17.5 µM. In addition, the GI50 with A549 NSCLC is 2.72 µM. In addition, the TGI is 91.5 µM in the assay on A498 renal; > 100 µM with LOX IMVI melanoma; > 100 µM with RPMI-8226 leukemia; 78.6 µM in the assay with BT-549 breast; > 100 µM in the assay on SK-MEL-28 melanoma; > 100 µM with NCI-H23 lung. In addition, the TGI in the assay on A549 NSCLC was > 100 µM.
With `O=c1c2ccc(S(=O)(=O)c3ccc4c(=O)n5c6ccccc6nc5c5cccc3c45)c3cccc(c32)c2nc3ccccc3n12`, the TGI with LOX IMVI melanoma is > 100 µM; with RPMI-8226 leukemia, > 100 µM; in the assay on BT-549 breast it was 50.5 µM; with SK-MEL-28 melanoma, > 100 µM; in the assay with NCI-H23 lung, > 100 µM; in the assay on A549 NSCLC, > 100 µM.
With `O=c1[nH]c2ccccc2c2nc3ccccc3n12`, the TGI in the assay with A498 renal is > 100 µM; in the assay on LOX IMVI melanoma it was > 100 µM; in the assay on RPMI-8226 leukemia, > 100 µM; with BT-549 breast, > 100 µM; with OVCAR-4 ovarian, 14 µM; with NCI-H23 lung, > 100 µM. Moreover, the TGI in the assay on A549 NSCLC is > 100 µM.
For the molecule `COc1ccc(/C=C2\CN(C(=O)C(Cl)Cl)C/C(=C\c3ccc(OC)cc3)C2=O)cc1`, the GI50 with LOX IMVI melanoma is 0.251 µM; in the assay on BT-549 breast, 2.19 µM; in the assay with OVCAR-4 ovarian, 2.32 µM; in the assay on NCI-H23 lung, 1.56 µM; in the assay on A549 NSCLC, 2.57 µM. Further, the TGI is 0.766 µM in the assay with LOX IMVI melanoma; 8.13 µM in the assay on BT-549 breast; > 100 µM in the assay on OVCAR-4 ovarian; 4 µM in the assay on NCI-H23 lung; > 100 µM in the assay with A549 NSCLC.
As to `NC(N)=NCC1CCCCCCN1` (centres undefined), the TGI in the assay with A498 renal, in the assay on RPMI-8226 leukemia, in the assay with BT-549 breast, in the assay on SK-MEL-28 melanoma, in the assay on OVCAR-4 ovarian and in the assay with NCI-H23 lung was > 100 µM in each case. The TGI in the assay with A549 NSCLC is > 100 µM.
Take `COC(=O)N1CC(=O)C(C(=O)NC23CC4CC(CC(C4)C2)C3)C1` (centres undefined): the TGI in the assay on A498 renal, in the assay on RPMI-8226 leukemia, in the assay on BT-549 breast, in the assay with SK-MEL-28 melanoma, in the assay on OVCAR-4 ovarian and in the assay on NCI-H23 lung was > 100 µM in each case. Also, the TGI with A549 NSCLC was > 100 µM.
Take `Cc1c(O)c(N=Nc2nc3ccccc3s2)c2ccccc2c1O`: the GI50 was 29.7 µM in the assay with LOX IMVI melanoma; 23.6 µM in the assay with RPMI-8226 leukemia; 15.5 µM with BT-549 breast; 13.9 µM with NCI-H23 lung; 19.8 µM in the assay with A549 NSCLC. For the same molecule, the TGI in the assay with LOX IMVI melanoma, in the assay with RPMI-8226 leukemia, in the assay on BT-549 breast, in the assay with NCI-H23 lung and in the assay with A549 NSCLC was > 50 µM throughout.

For the origin of these results see PubChem BioAssay (NCI).
